From US10246429B2, “Vinyl fluoride cyclopropyl fused thiazin-2-amine compounds as beta-secretase inhibitors and methods of use” (AMGEN INC., priority 2015, dated 2019) come the findings set out here.

Some results are limits rather than exact numbers.

One assay has as its target BACE2 (Homo sapiens (Human), UniProt Q9Y5Z0). The experiment in a line: In vitro enzymatic BACE2 FRET assay. The class given is biochemical. The note with it: read-out: IC50 IP (μM) BACE2 Enzyme.
The next assay addresses Cathepsin D (CatD) (Homo sapiens (Human), UniProt P07339). As to the kind of experiment: CatD assay. The format is biochemical. The conditions noted are these: read-out: IC50 IP (μM) CatD.

Sequence of Cathepsin D (CatD) (P07339 65-412, species assumed): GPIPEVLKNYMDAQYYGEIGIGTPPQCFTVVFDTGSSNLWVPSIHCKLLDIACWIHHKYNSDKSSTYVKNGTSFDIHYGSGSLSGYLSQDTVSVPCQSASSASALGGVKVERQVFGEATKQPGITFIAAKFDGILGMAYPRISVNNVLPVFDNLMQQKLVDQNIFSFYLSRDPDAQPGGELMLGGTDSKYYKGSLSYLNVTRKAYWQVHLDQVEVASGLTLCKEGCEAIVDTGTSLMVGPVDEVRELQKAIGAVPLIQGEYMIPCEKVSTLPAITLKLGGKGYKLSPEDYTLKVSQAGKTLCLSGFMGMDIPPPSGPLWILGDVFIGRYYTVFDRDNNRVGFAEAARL
Sequence of BACE2 (Q9Y5Z0 63-518): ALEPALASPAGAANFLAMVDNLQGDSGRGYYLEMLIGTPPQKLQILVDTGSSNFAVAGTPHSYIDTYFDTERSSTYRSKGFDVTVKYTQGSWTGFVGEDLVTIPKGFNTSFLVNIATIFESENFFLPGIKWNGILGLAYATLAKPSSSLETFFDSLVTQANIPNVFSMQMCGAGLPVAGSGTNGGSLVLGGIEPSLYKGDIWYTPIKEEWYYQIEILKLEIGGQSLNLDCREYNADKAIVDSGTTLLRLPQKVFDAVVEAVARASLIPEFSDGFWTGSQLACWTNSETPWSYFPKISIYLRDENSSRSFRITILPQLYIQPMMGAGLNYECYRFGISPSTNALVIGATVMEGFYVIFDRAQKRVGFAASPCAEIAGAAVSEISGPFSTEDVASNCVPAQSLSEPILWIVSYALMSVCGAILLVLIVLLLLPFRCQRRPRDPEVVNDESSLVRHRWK
From the text for BACE2: In Vitro Enzymatic BACE1 and BACE2 FRET (Fluorescence Resonance Energy Transfer) Assays (Enzyme Assay Data in Table 1)

Turning to `CN(C)C(=O)[C@]12C[C@H]1[C@@](C)(c1cc(/C=C(\F)c3ncc(C#N)cn3)ccc1F)N=C(N)S2` [Example 170, (1S,5S,6S)-3-amino-5-(5-((Z)-2-(5-cyanopyrimidin-2-yl)-2-fluorovinyl)-2-fluorophenyl)-N,N,5-trimethyl-2-thia-4-azabicyclo[4.1.0]hept-3-ene-1-carboxamide], the IC50 (usually the point on the concentration scale where inhibition reaches its midpoint) on BACE2 is 0.00305 µM; at Cathepsin D (CatD), 1700 µM.
The matching figures for `CN(C)C(=O)[C@]12C[C@H]1[C@@](C)(c1cc(/C=C(\F)c3ccc(C#N)nc3)ccc1F)N=C(N)S2` [Example 171, (1S,5S,6S)-3-amino-5-(5-((Z)-2-(6-cyanopyridin-3-yl)-2-fluorovinyl)-2-fluorophenyl)-N,N,5-trimethyl-2-thia-4-azabicyclo[4.1.0]hept-3-ene-1-carboxamide]: 0.642 µM and 824 µM.
For `CN(C)C(=O)[C@]12C[C@H]1[C@@](C)(c1cc(/C=C(\F)c3ccc(C#N)cc3F)ccc1F)N=C(N)S2` [Example 172, (1S,5S,6S)-3-amino-5-(5-((Z)-2-(4-cyano-2-fluorophenyl)-2-fluorovinyl)-2-fluorophenyl)-N,N,5-trimethyl-2-thia-4-azabicyclo[4.1.0]hept-3-ene-1-carboxamide] the same measures were 0.146 µM and 202 µM.
With `CN(C)C(=O)[C@]12C[C@H]1[C@@](C)(c1cc(/C=C(\F)c3ccc(C#N)nn3)ccc1F)N=C(N)S2` [Example 174, (1S,5S,6S)-3-amino-5-(5-((Z)-2-(6-cyanopyridazin-3-yl)-2-fluorovinyl)-2-fluorophenyl)-N,N,5-trimethyl-2-thia-4-azabicyclo[4.1.0]hept-3-ene-1-carboxamide], the IC50 at BACE2 amounted to 0.406 µM; at Cathepsin D (CatD), 280 µM.
The matching figures for `CNC(=O)[C@]12C[C@H]1[C@@](C)(c1cc(/C=C(\F)c3ccc(Cl)cn3)ccc1F)N=C(N)S2` [Example 175, (1S,5S,6S)-3-amino-5-(5-((Z)-2-(5-chloropyridin-2-yl)-2-fluorovinyl)-2-fluorophenyl)-N,5-dimethyl-2-thia-4-azabicyclo[4.1.0]hept-3-ene-1-carboxamide]: 0.0364 µM and 204 µM.
For `CN(C)C(=O)[C@]12C[C@H]1[C@@](C)(c1cc(/C=C(\F)c3ccc(Cl)cn3)cnc1F)N=C(N)S2` [Example 178, (1S,5S,6S)-3-amino-5-(5-((Z)-2-(5-chloropyridin-2-yl)-2-fluorovinyl)-2-fluoropyridin-3-yl)-N,N,5-trimethyl-2-thia-4-azabicyclo[4.1.0]hept-3-ene-1-carboxamide] the same measures were 0.00574 µM and 609 µM.
Regarding `CN(C)C(=O)[C@]12C[C@H]1[C@@](C)(c1cc(/C=C(\F)c3ccc(C#N)cn3)cnc1F)N=C(N)S2` [Example 180, (1S,5S,6S)-3-amino-5-(5-((Z)-2-(5-cyanopyridin-2-yl)-2-fluorovinyl)-2-fluoropyridin-3-yl)-N,N,5-trimethyl-2-thia-4-azabicyclo[4.1.0]hept-3-ene-1-carboxamide], the 50% inhibitory concentration (IC50) on BACE2 was 0.023 µM; at Cathepsin D (CatD) it was greater than 400 µM.
As to `C[C@]1(c2cc(/C=C(\F)c3ccc(C#N)cn3)cnc2F)N=C(N)S[C@@]2(C(=O)N3CCOCC3)C[C@H]21` [Example 183, 6-((Z)-2-(5-((1S,5S,6S)-3-amino-5-methyl-1-(morpholine-4-carbonyl)-2-thia-4-azabicyclo[4.1.0]hept-3-en-5-yl)-6-fluoropyridin-3-yl)-1-fluorovinyl)nicotinonitrile], the IC50 on BACE2 was 0.241 µM; at Cathepsin D (CatD) it was 2140 µM.
The matching figures for `CN(C)C(=O)[C@]12C[C@H]1[C@@](C)(c1cc(/C=C\F)ccc1F)N=C(N)S2` [Example 208, (1S,5S,6S)-3-amino-5-(2-fluoro-5-((Z)-2-fluorovinyl)phenyl)-N,N,5-trimethyl-2-thia-4-azabicyclo[4.1.0]hept-3-ene-1-carboxamide]: 0.117 µM and 9.28 µM.
The matching figures for `Cc1nnc(COc2cnc(/C(F)=C/c3ccc(F)c([C@@]4(C)N=C(N)S[C@@]5(S(C)(=O)=O)C[C@H]54)c3)cn2)o1` [Example 228, (1R,5S,6S)-5-(2-fluoro-5-((Z)-2-fluoro-2-(5-((5-methyl-1,3,4-oxadiazol-2-yl)methoxy)pyrazin-2-yl)vinyl)phenyl)-5-methyl-1-(methylsulfonyl)-2-thia-4-azabicyclo[4.1.0]hept-3-en-3-amine]: 0.292 µM and 46.3 µM.
Take `CN(C)C(=O)[C@]12C[C@H]1[C@@](C)(c1cc(/C=C(\F)c3cc4nccnc4cn3)ccc1F)N=C(N)S2` [Example 247, (1S,5S,6S)-3-amino-5-(2-fluoro-5-((Z)-2-fluoro-2-(pyrido[3,4-b]pyrazin-7-yl)vinyl)phenyl)-N,N,5-trimethyl-2-thia-4-azabicyclo[4.1.0]hept-3-ene-1-carboxamide]: the IC50 on BACE2 was determined as 0.385 µM; on Cathepsin D (CatD), 1190 µM.
As to `C[C@]1(c2cc(/C=C(\F)c3cnc(Cl)cn3)ccc2F)N=C(N)S[C@]2(CO)[C@H]1C2(F)F` [Example 252, ((1S,5S,6R)-3-amino-5-(5-((Z)-2-(5-chloropyrazin-2-yl)-2-fluorovinyl)-2-fluorophenyl)-7,7-difluoro-5-methyl-2-thia-4-azabicyclo[4.1.0]hept-3-en-1-yl)methanol], the IC50 was found to be 0.151 µM on BACE2 and 158 µM on Cathepsin D (CatD).
As for `COC(=O)[C@@]12SC(N)=N[C@](C)(c3cc(/C=C(\F)c4ccc(C#N)cn4)ccc3F)[C@@H]1C2(F)F` [Example 256, (1S,5S,6R)-methyl 3-amino-5-(5-((Z)-2-(5-cyanopyridin-2-yl)-2-fluorovinyl)-2-fluorophenyl)-7,7-difluoro-5-methyl-2-thia-4-azabicyclo[4.1.0]hept-3-ene-1-carboxylate], the concentration for half-maximal inhibition (IC50) at BACE2 is 0.252 µM; on Cathepsin D (CatD), 760 µM.
For `COC[C@@]12SC(N)=N[C@](C)(c3cc(/C=C(\F)c4ccc(C#N)cn4)ccc3F)[C@@H]1C2(F)F` [Example 258, 6-((Z)-2-(3-((1S,5S,6R)-3-amino-7,7-difluoro-1-(methoxymethyl)-5-methyl-2-thia-4-azabicyclo[4.1.0]hept-3-en-5-yl)-4-fluorophenyl)-1-fluorovinyl)nicotinonitrile] the same measures were 0.118 µM and 90.7 µM.
The matching figures for `C[C@]1(c2cc(/C=C(\F)c3ccc(C#N)cn3)cnc2F)N=C(N)S[C@@]2(C(=O)N3CCC(F)(F)CC3)C[C@H]21` [Example 260, 6-((Z)-2-(5-((1S,5S,6S)-3-amino-1-(4,4-difluoropiperidine-1-carbonyl)-5-methyl-2-thia-4-azabicyclo[4.1.0]hept-3-en-5-yl)-6-fluoropyridin-3-yl)-1-fluorovinyl)nicotinonitrile]: 0.115 µM and 84.1 µM.
The matching figures for `COC[C@]12C[C@H]1[C@@](C)(c1cc(/C=C(\F)c3cnc(Cl)cn3)ccc1F)N=C(N)S2` [Example 261, (1S,5S,6S)-5-(5-((Z)-2-(5-chloropyrazin-2-yl)-2-fluorovinyl)-2-fluorophenyl)-1-(methoxymethyl)-5-methyl-2-thia-4-azabicyclo[4.1.0]hept-3-en-3-amine]: 0.08 µM and 357 µM.
For `C#CCOc1cnc(/C(F)=C/c2ccc(F)c([C@@]3(C)N=C(N)S[C@@]4(COC)C[C@H]43)c2)cn1` [Example 262, (1S,5S,6S)-5-(2-fluoro-5-((Z)-2-fluoro-2-(5-(prop-2-yn-1-yloxy)pyrazin-2-yl)vinyl)phenyl)-1-(methoxymethyl)-5-methyl-2-thia-4-azabicyclo[4.1.0]hept-3-en-3-amine], the concentration for half-maximal inhibition (IC50) at BACE2 came to 0.694 µM; on Cathepsin D (CatD), 317 µM.
For `CC#CCOc1cnc(/C(F)=C/c2ccc(F)c([C@@]3(C)N=C(N)S[C@@]4(COC)C[C@H]43)c2)cn1` [Example 263] the same measures were 1.84 µM and 492 µM.
The matching figures for `COC[C@]12C[C@H]1[C@@](C)(c1cc(/C=C(\F)c3cnc(OC[C@H](C)OC)cn3)ccc1F)N=C(N)S2` [Example 265]: 3.86 µM and 1320 µM.
For `COC[C@]12C[C@H]1[C@@](C)(c1cc(/C=C(\F)c3cnc(OCCC(F)(F)F)cn3)ccc1F)N=C(N)S2` [Example 268] the same measures were 1.55 µM and 245 µM.
Turning to `COC[C@]12C[C@H]1[C@@](C)(c1cc(/C=C(\F)c3cnc(OCC4CCC4)cn3)ccc1F)N=C(N)S2` [Example 271], the figures for the IC50 on BACE2 and on Cathepsin D (CatD) were 1.84 µM and 120 µM, respectively.
The matching figures for `COC[C@]12C[C@H]1[C@@](C)(c1cc(/C=C(\F)c3cnc(OCC4CCO4)cn3)ccc1F)N=C(N)S2` (stereo partly drawn) [Example 273]: 5.11 µM and 647 µM.
For `COC[C@]12C[C@H]1[C@@](C)(c1cc(/C=C(\F)c3cnc(OCc4cc(C)no4)cn3)ccc1F)N=C(N)S2` [Example 276] the same measures were 0.966 µM and 156 µM.
`COC[C@]12C[C@H]1[C@@](C)(c1cc(/C=C(\F)c3cnc(OC(C)C(F)(F)F)cn3)ccc1F)N=C(N)S2` (stereo partly drawn) [Example 277]: the figures for the IC50 at BACE2 and on Cathepsin D (CatD) were 2.42 µM and 207 µM, respectively.
Consider `COC[C@]12C[C@H]1[C@@](C)(c1cc(/C=C(\F)c3cnc(OCC4CC(F)(F)C4)cn3)ccc1F)N=C(N)S2` [Example 278], for which the half-maximal inhibitory concentration (IC50) at BACE2 stood at 1.32 µM; on Cathepsin D (CatD), 199 µM.
Turning to `CN(C)C(=O)[C@]12C[C@H]1[C@@](C)(c1cc(/C=C(\F)c3cnc(OCC(F)(F)F)cn3)cnc1F)N=C(N)S2` [Example 282, (1S,5S,6S)-3-amino-5-(2-fluoro-5-((Z)-2-fluoro-2-(5-(2,2,2-trifluoroethoxy)pyrazin-2-yl)vinyl)pyridin-3-yl)-N,N,5-trimethyl-2-thia-4-azabicyclo[4.1.0]hept-3-ene-1-carboxamide], the 50% inhibitory concentration (IC50) on BACE2 turned out to be 0.125 µM; at Cathepsin D (CatD), 287 µM.
In the case of `C#CCOc1cnc(/C(F)=C/c2cnc(F)c([C@@]3(C)N=C(N)S[C@@]4(C(=O)O)C[C@H]43)c2)cn1` [Example 285, (1S,5S,6S)-3-amino-5-(2-fluoro-5-((Z)-2-fluoro-2-(5-(prop-2-yn-1-yloxy)pyrazin-2-yl)vinyl)pyridin-3-yl)-5-methyl-2-thia-4-azabicyclo[4.1.0]hept-3-ene-1-carboxylic acid], the IC50 at BACE2 amounted to 6.35 µM; on Cathepsin D (CatD) it was 316 µM.
